Experimental data as given in US10604535B2, “Compounds, compositions and methods” (Denali Therapeutics Inc., priority 2016, dated 2020).

test system: FADD-deficient Jurkat cells; assay: Cellular necroptosis assay (human TNFα-induced necrosis, CellTiter-Glo); assay type: cell-based; conditions: Homo sapiens, Jurkat, 48 h, TNFα 10 ng/mL, read-out: Cell IC50

Compound	IC50 [nM]
CN1C(=O)C(NC(=O)c2cc(Cc3ccccc3)on2)CC(F)c2ccccc21 (centres unmarked) [Example 2, 5-benzyl-N-(5-fluoro-1-methyl-2-oxo-2,3,4,5-tetrahydro-1H-benzo[b]azepin-3-yl)isoxazole-3-carboxamide]	0.1 to 1000
CN1C(=O)[C@@H](NC(=O)c2ncc(Cc3ccccc3)s2)COc2ccccc21 [Example 5, (S)-5-benzyl-N-(5-methyl-4-oxo-2,3,4,5-tetrahydrobenzo[b][1,4]oxazepin-3-yl)thiazole-2-carboxamide]	0.1 to 1000
CN1C(=O)[C@@H](NC(=O)c2cc(Cc3ccccc3)on2)[C@H]2C[C@H]2c2ccccc21 [Example 7A, 5-benzyl-N-((2S)-4-methyl-3-oxo-1,1a,2,3,4,8b-hexahydrobenzo[b]cyclopropa[d]azepin-2-yl)isoxazole-3-carboxamide]	0.1 to 1000
CN1C(=O)[C@@H](NC(=O)c2cc(Cc3ccccc3)[nH]n2)CC2(CC2)c2ccccc21 [Example 59, 5-benzyl-N-[(3S)-1-methyl-2-oxo-1,2,3,4-tetrahydrospiro[1-benzazepine-5,1-cyclopropane]-3-yl]-1H-pyrazole-3-carboxamide]	0.1 to 1000
CN1C(=O)[C@@H](NC(=O)c2cc(Cc3ccccc3)[nH]n2)[C@H]2C[C@H]2c2ccccc21 [Example 60A, 5-benzyl-N-((1aS,2S,8bR)-4-methyl-3-oxo-1,1a,2,3,4,8b-hexahydrobenzo[b]cyclopropa[d]azepin-2-yl)-1H-pyrazole-3-carboxamide]	0.1 to 1000
CN1C(=O)[C@@H](NC(=O)c2coc(C3(c4ccccc4)CC3)n2)COc2ccccc21 [Example 61, (S)—N-(5-methyl-4-oxo-2,3,4,5-tetrahydrobenzo[b][1,4]oxazepin-3-yl)-2-(1-phenylcyclopropyl)oxazole-4-carboxamide]	0.1 to 1000
O=C(N[C@H]1COc2cccnc2NC1=O)c1cc(C2(c3ccccc3)CC2)on1 [Example 62, (S)—N-(4-oxo-2,3,4,5-tetrahydropyrido[3,2-b][1,4]oxazepin-3-yl)-5-(1-phenylcyclopropyl)isoxazole-3-carboxamide]	0.1 to 1000
CN1C(=O)[C@@H](NC(=O)c2ncc(C3(c4ccccc4)CC3)s2)COc2cccnc21 [Example 63, (S)—N-(5-methyl-4-oxo-2,3,4,5-tetrahydropyrido[3,2-b][1,4]oxazepin-3-yl)-5-(1-phenylcyclopropyl)thiazole-2-carboxamide]	0.1 to 1000
CN1C(=O)[C@@H](NC(=O)c2nn(Cc3ccccc3)cc2F)COc2ccccc21 [Example 64, (S)-1-benzyl-4-fluoro-N-(5-methyl-4-oxo-2,3,4,5-tetrahydrobenzo[b][1,4]oxazepin-3-yl)-1H-pyrazole-3-carboxamide]	0.1 to 1000
O=C(N[C@H]1COc2ccccc2-n2ccnc21)c1nnc(Cc2ccccc2)[nH]1 [Example 68A, (R)-5-benzyl-N-(4,5-dihydrobenzo[b]imidazo[1,2-d][1,4]oxazepin-4-yl)-4H-1,2,4-triazole-3-carboxamide]	0.1 to 1000
O=C(N[C@H]1CCc2ccccc2-n2cnnc21)c1nnc(Cc2ccccc2)[nH]1 [Example 69A, (S)-5-benzyl-N-(5,6-dihydro-4H-benzo[f][1,2,4]triazolo[4,3-a]azepin-4-yl)-4H-1,2,4-triazole-3-carboxamide]	0.1 to 1000
O=C(N[C@H]1CCc2ccccc2-n2cnnc21)c1cc(Cc2ccccc2)on1 [Example 71A, (S)-5-benzyl-N-(5,6-dihydro-4H-benzo[f][11,2,4]triazolo[4,3-a]azepin-4-yl)isoxazole-3-carboxamide]	0.1 to 1000
CN1C(=O)[C@@H](NC(=O)c2cc(C3(c4ccccc4)CC3)[nH]n2)COc2ccccc21 [Example 72, (S)—N-(5-methyl-4-oxo-2,3,4,5-tetrahydrobenzo[b][1,4]oxazepin-3-yl)-5-(1-phenylcyclopropyl)-1H-pyrazole-3-carboxamide]	0.1 to 1000
CN1C(=O)[C@@H](NC(=O)c2cc(C3(c4ccccc4)CC3)[nH]n2)COc2cccnc21 [Example 73, (S)—N-(5-methyl-4-oxo-2,3,4,5-tetrahydropyrido[3,2-b][1,4]oxazepin-3-yl)-5-(1-phenylcyclopropyl)-1H-pyrazole-3-carboxamide]	0.1 to 1000
CN1C(=O)[C@@H](NC(=O)c2nn(Cc3ccccn3)cc2F)COc2cccnc21 [Example 74, (S)-4-fluoro-N-(5-methyl-4-oxo-2,3,4,5-tetrahydropyrido[3,2-b][1,4]oxazepin-3-yl)-1-(pyridin-2-ylmethyl)-1H-pyrazole-3-carboxamide]	0.1 to 1000
CN1C(=O)[C@@H](NC(=O)c2nn(Cc3ccccc3)cc2F)COc2cccnc21 [Example 76, (S)-1-benzyl-4-fluoro-N-(5-methyl-4-oxo-2,3,4,5-tetrahydropyrido[3,2-b][1,4]oxazepin-3-yl)-1H-pyrazole-3-carboxamide]	0.1 to 1000
CN1C(=O)[C@@H](NC(=O)c2ncc(C3(c4ccccc4)CC3)[nH]2)COc2ccccc21 [Example 78, (S)—N-(5-methyl-4-oxo-2,3,4,5-tetrahydrobenzo[b][1,4]oxazepin-3-yl)-5-(1-phenylcyclopropyl)-1H-imidazole-2-carboxamide]	0.1 to 1000
CN1C(=O)[C@@H](NC(=O)c2nc3cccc(-c4ccccc4F)c3s2)COc2ccccc21 [Example 79, (S)-7-(2-fluorophenyl)-N-(5-methyl-4-oxo-2,3,4,5-tetrahydrobenzo[b][1,4]oxazepin-3-yl)benzo[d]thiazole-2-carboxamide]	0.1 to 1000
CN1C(=O)[C@@H](NC(=O)c2cc(Cc3ccccc3)[nH]n2)[C@H]2C[C@H]2c2cccnc21 [Example 80A, 5-benzyl-N-((1aS,2S,8bR)-4-methyl-3-oxo-1,1a,2,3,4,8b-hexahydrocyclopropa[d]pyrido[2,3-b]azepin-2-yl)-1H-pyrazole-3-carboxamide]	0.1 to 1000
CN1C(=O)[C@@H](NC(=O)c2cc(Cc3ccccc3)on2)[C@H]2C[C@H]2c2cccnc21 [Example 81A, 5-benzyl-N-((1aS,2S,8bR)-4-methyl-3-oxo-1,1a,2,3,4,8b-hexahydrocyclopropa[d]pyrido[2,3-b]azepin-2-yl)isoxazole-3-carboxamide]	0.1 to 1000
CN1C(=O)[C@@H](NC(=O)c2nn(Cc3ccccc3)cc2F)[C@H]2C[C@H]2c2cccnc21 [Example 82A, 1-benzyl-4-fluoro-N-((1aS,2S,8bR)-4-methyl-3-oxo-1,1a,2,3,4,8b-hexahydrocyclopropa[d]pyrido[2,3-b]azepin-2-yl)-1H-pyrazole-3-carboxamide]	0.1 to 1000
CN1C(=O)[C@@H](NC(=O)c2nc3cccc(-c4ccccc4)c3s2)COc2ccccc21 [Example 84, (S)—N-(5-methyl-4-oxo-2,3,4,5-tetrahydrobenzo[b][1,4]oxazepin-3-yl)-7-phenylbenzo[d]thiazole-2-carboxamide]	0.1 to 1000
CN1C(=O)[C@@H](NC(=O)c2nnc(Cc3ccccc3)s2)COc2cccnc21 [Example 85, (S)-5-benzyl-N-(5-methyl-4-oxo-2,3,4,5-tetrahydropyrido[3,2-b][1,4]oxazepin-3-yl)-1,3,4-thiadiazole-2-carboxamide]	0.1 to 1000
CN1C(=O)[C@@H](NC(=O)c2ncc(Cc3ccccc3)s2)COc2cccnc21 [Example 86, (S)-5-benzyl-N-(5-methyl-4-oxo-2,3,4,5-tetrahydropyrido[3,2-b][1,4]oxazepin-3-yl)thiazole-2-carboxamide]	0.1 to 1000
CN1C(=O)[C@@H](NC(=O)c2cnc(C3(c4ccccc4)CC3)[nH]2)COc2ccccc21 [Example 88, (S)—N-(5-methyl-4-oxo-2,3,4,5-tetrahydrobenzo[b][1,4]oxazepin-3-yl)-2-(1-phenylcyclopropyl)-1H-imidazole-5-carboxamide]	1000 to 10000
O=C(N[C@@H]1C(=O)Nc2c(F)cc(F)cc2[C@@H]2C[C@H]12)c1nnc(Cc2ccccc2)o1 [Example 89B, 5-benzyl-N-((1aS,2S,8bR)-5,7-difluoro-3-oxo-1,1a,2,3,4,8b-hexahydrobenzo[b]cyclopropa[d]azepin-2-yl)-1,3,4-oxadiazole-2-carboxamide]	0.1 to 1000
O=C(N[C@@H]1C(=O)Nc2c(F)cc(F)cc2[C@@H]2C[C@H]12)c1cn(Cc2ccccc2)nn1 [Example 90B, 1-benzyl-N-((1aS,2S,8bR)-5,7-difluoro-3-oxo-1,1a,2,3,4,8b-hexahydrobenzo[b]cyclopropa[d]azepin-2-yl)-1H-1,2,3-triazole-4-carboxamide]	0.1 to 1000
[2H]C([2H])([2H])N1C(=O)[C@@H](NC(=O)c2nnc(C3(c4ccccc4)CC3)o2)COc2cccnc21 [Example 173, (S)—N-(5-trideuteriomethyl-4-oxo-2,3,4,5-tetrahydropyrido[3,2-b][1,4]oxazepin-3-yl)-5-(1-phenylcyclopropyl)-1,3,4-oxadiazole-2-carboxamide]	0.1 to 1000
[2H]C([2H])([2H])N1C(=O)[C@@H](NC(=O)c2nn(Cc3ccccc3)cc2F)COc2cccnc21 [Example 175, (S)-1-benzyl-4-fluoro-N-(5-trideuteriomethyl-4-oxo-2,3,4,5-tetrahydropyrido[3,2-b][1,4]oxazepin-3-yl)-1H-pyrazole-3-carboxamide]	0.1 to 1000
CN1C(=O)[C@@H](NC(=O)c2nn(Cc3cocn3)cc2F)COc2cccnc21 [Example 209, (S)-4-fluoro-N-(5-methyl-4-oxo-2,3,4,5-tetrahydropyrido[3,2-b][1,4]oxazepin-3-yl)-1-(oxazol-4-ylmethyl)-1H-pyrazole-3-carboxamide]	0.1 to 1000

same assay, conditions: Homo sapiens, Jurkat, 48 h, read-out: Cell IC50, TNFα 10 ng/mL, 48 h

Compound	IC50 [nM]
O=C(N[C@H]1CCc2ccccc2-n2ccnc21)c1nnc(Cc2ccccc2)[nH]1 [Example 52, (S)-5-benzyl-N-(5,6-dihydro-4H-benzo[f]imidazo[1,2-a]azepin-4-yl)-4H-1,2,4-triazole-3-carboxamide]	0.1 to 1000

same assay, conditions: TNFα 10 ng/mL, 48 h; read-out: Cell IC50

Compound	IC50 [nM]
CN1C(=O)[C@@H](NC(=O)c2nnc([C@H]3CCc4ccccc43)[nH]2)COc2cccnc21 [Example 54B, 5-((S)-2,3-dihydro-1H-inden-1-yl)-N—((S)-5-methyl-4-oxo-2,3,4,5-tetrahydropyrido[3,2-b][1,4]oxazepin-3-yl)-4H-1,2,4-triazole-3-carboxamide]	0.1 to 1000
